In patent publication EP0728012B1, “NOVEL GnRH ANALOGUES WITH ANTITUMOUR EFFECTS AND PHARMACEUTICAL COMPOSITIONS THEREOF” (Lovas, Sandor, priority 1994, dated 1996):
Non-standard residues stand in square brackets, D forms with d. Residues, ends and D or L forms follow the SMILES beside them. dPhe(4-Cl) = N[C@H](Cc1ccc(Cl)cc1)C(=O)O

What was measured:
[1] = system: Ishikawa human endometrium carcinoma cell line; assay: Inhibition of colony formation (dose-survival relation, Example 18); assay type: cell-based
Experimental: (§1) In the case of cytostatics the cell-damaging effect is not cell-specific. […] One part of the arrested cells again go into the cycle, the other part may perish (apoptosis). […] The investigations were carried out on MCF-7 and MDA-MB-231 human mammary carcinoma cell lines, PC3 human prostate 15 carcinoma cell line and Ishikawa human endometrium carcinoma cell line. Three hundred cells were set into Petri dishes of 3.5 cm in diameter each. The treatment was carried out once, 24 hours following the explantation, then the colonies formed were counted after 9 to 12 days.

[2] = system: MCF-7 human mammary carcinoma cell line; assay: as above; assay type: cell-based; conditions: for % Inhibition of colony formation: treated once
Experimental: as §1

[3] = system: MDA-MB-231 human mammary carcinoma cell line; assay: as above; assay type: cell-based
Experimental: as §1

[4] = system: PC3 human prostate carcinoma cell line; assay: as above; assay type: cell-based
Experimental: as §1

Ishikawa [5] = assay: Inhibition of colony formation by GnRH analogues (dose-survival, Example 48); assay type: cell-based, human; conditions: 50 µM
Experimental: (§2) The examination gives accurate information about the cell-damaging effect of the substance tested as a function of varying doses. The treatment was carried out once; the colonies formed from the surviving cells were counted after 8 - 12 days. […] A part of the arrested cells again entered the cycle, another part of them might be destroyed (apoptosis). […] In the case of a dose-response investigation, colonies containing less than 15 cells were not counted. 300 cells were put into each Petri dishes of 3.5 cm in diameter. The treatment was once carried out 24 hours after setting, then the colonies formed were counted after 8 - 12 days. The cells were treated once after 24 hours with 1-50 µM of various GnRH analogues of Examples above or with 1 - 50 µM of GnRH-III, respectively. The percentages of inhibition obtained on MCF-7, MDA-MB-231, PC3 and Ishikawa cells, respectively, together with the dose of the active agent used are shown in Table VIII.

MCF-7 [6] = assay: as above; assay type: cell-based, human; conditions: treated once
Experimental: as §2

MDA-MB-231 [7] = assay: as above; assay type: cell-based, human
Experimental: as §2

PC3 [8] = assay: as above; assay type: cell-based, human; conditions: for % Inhibition of the colony formation: 50 µM; for inhibition of colony formation: within the dose range used (1-50 µM)
Experimental: as §2

human tumour cell lines [9] = assay: Inhibition of colony formation (Example 48), comparison with the control D-Trp^6-hGnRH; assay type: cell-based; conditions: data of Table VIII
Experimental: as §2
In these studies the D-Trp^6-hGnRH analogue (Sigma Co.) commonly used in the tumour therapy was employed as control.

human tumour cell lines [10] = assay type: cell-based; conditions: 30 µM
Experimental: (§3) After being treated with trypsin, 300.000 each of MCF-7, MDA-MB-231, PC3 or Ishikawa cells, respectively, were passed into Petri dishes of 10 cm in diameter. Starting from the day following the setting, the cells were treated with 1-50 µM of the GnRH analogue in the exponential growth phase. During the experiment lasting for 5 days, the cells were treated in every two days with the peptide hormone dissolved in the nutrient medium, then the cell count was determined on the sixth day.

Ishikawa [11] = system: Ishikawa
Experimental: The procedure of treatment was as follows. After trypsinization the cells, 400,000 cells of MCF-7, MDA-MB-231 human mammary carcinoma, PC3 human prostate carcinoma or Ishikawa human endometrium tumour each were passed into Petri dishes of 10 cm in diameter. Starting from the day following transfer, the cells were treated with the substances to be tested in solution prepared with the nutrient medium during the exponential growth phase. The cultures were treated with 1 to 50 µM (calculated for the total volume of the culture) or MI-1544 GnRH antagonist, MI-1892 chicken GnRH antagonist or SJ-1004 GnRH […] on the 7th day.

PC3 [12] = assay: In vitro inhibition of cell proliferation (Example 19); assay type: cell-based, human
Experimental: The procedure of treatment was as follows. After trypsinization the cells, 400,000 cells of MCF-7, MDA-MB-231 human mammary carcinoma, PC3 human prostate carcinoma or Ishikawa human endometrium tumour each were passed into Petri dishes of 10 cm in diameter. Starting from the day following transfer, the cells were treated with the substances to be tested in solution prepared with the nutrient medium during the exponential growth phase. The cultures were treated with 1 to 50 µM (calculated for the total volume of the culture) or MI-1544 GnRH antagonist, MI-1892 chicken GnRH antagonist or SJ-1004 GnRH antagonist analogues as well as synthetic lamprey GnRH-III hormone every two days and the cell count was determined on the 7th day.

MXT mouse mammary tumour = assay: In vivo antitumour effect on mice bearing MXT mouse mammary tumour; parameters: species or system CBA/Ca mice
Experimental: The MXT mouse mammary carcinoma contains ER and PgR proteins; furthermore, it contains also GnRH receptors; therefore, this in vivo tumour model is suitable for studying both the direct and indirect effects. The treatment of mice bearing MXT mammary tumour was commenced on the day following transplantation. […] Table VI The animals were daily treated in s.c. route starting from the day following transplantation of MXT mouse mammary tumour. […] MI-1544: 75 µg/day/animal; MI-1892: 75 µg/day/animal.

MCF-7 [13] = conditions: MCF-7; 30 µM active substance; conjugate, treated once; cell count on 7th day; listed as 8. P-GFLG-1004
Experimental: (§4) The procedure of treatment was as follows. After trypsinization the cells, 400,000 cells of MCF-7, MDA-MB-231 human mammary carcinoma, PC3 human prostate carcinoma or Ishikawa human endometrium tumour each were passed into Petri dishes of 10 cm in diameter. Starting from the day following transfer, the cells were treated with the substances to be tested in solution prepared with the nutrient medium during the exponential growth phase. […]

MDA-MB-231 [14] = conditions: MDA-MB-231; 30 µM active substance; conjugate, treated once; listed as 8. P-GFLG-1004
Experimental: as §4

MCF-7 [15] = assay type: cell-based, human; conditions: MCF-7 ER-positive; after 6 days' treatment; dose not stated
Experimental: as §3

MDA-MB-231 [16] = assay type: cell-based, human; conditions: MDA-MB-231 ER-negative; after 6 days' treatment; dose not stated
Experimental: as §3

[17] = 30 µM, peptide alone, two treatments on days 2 and 4
[18] = MXT mouse mammary tumour, Treatment weeks: 13, 1x75 µg daily s.c.
[19] = MXT mouse mammary tumour, Treatment weeks: 20, 1x75 µg daily s.c.
[20] = 30 µM active substance, conjugate, treated once

NCCCC[C@H](NC(=O)[C@H](Cc1c[nH]c2ccccc12)NC(=O)[C@H](Cc1c[nH]cn1)NC(=O)[C@@H]1CCC(=O)N1)C(=O)N[C@@H](Cc1c[nH]cn1)C(=O)N[C@@H](CC(=O)O)C(=O)N[C@@H](Cc1c[nH]c2ccccc12)C(=O)N[C@@H](CCCCN)C(=O)N1CCC[C@H]1C(=O)NCC(N)=O [6. Lys^4-GnRH-III, Lys^4-GnRH-III]
inhibition of colony formation ([1]; concentration not given): 21%
inhibition of colony formation ([2]; concentration not given): 40%
inhibition of colony formation ([3]; concentration not given): 35%
inhibition of colony formation ([4]; concentration not given): did not show any inhibition
% Inhibition of the colony formation (Ishikawa [5]): 21%
% Inhibition of the colony formation (MCF-7 [6]; 10 µM): 15%
% Inhibition of the colony formation (MCF-7 [6]; 50 µM): 40%
% Inhibition of the colony formation (MDA-MB-231 [7]; 10 µM): 18%
% Inhibition of the colony formation (MDA-MB-231 [7]; 50 µM): 35%
% Inhibition of the colony formation (MDA-MB-231 [7]; 50 µM, listed as Example 31, 50 µM): 35-42%
% Inhibition of the colony formation (PC3 [8]): 0%
inhibition of colony formation (PC3 [8]): did not influence
inhibitory effect compared with the control D-Trp^6-hGnRH (human tumour cell lines [9]): exceeded the inhibitory effect of control
proliferation-inhibiting effect (human tumour cell lines [10]): 27-31%

CC(=O)NCCCC[C@H](NC(=O)[C@H](Cc1c[nH]c2ccccc12)NC(=O)[C@H](Cc1c[nH]cn1)NC(=O)[C@@H]1CCC(=O)N1)C(=O)N[C@@H](Cc1c[nH]cn1)C(=O)N[C@@H](CC(=O)O)C(=O)N[C@@H](Cc1c[nH]c2ccccc12)C(=O)N[C@@H](CCCCN)C(=O)N1CCC[C@H]1C(=O)NCC(N)=O [7. [Lys(ε-AC)]^4 GnRH-III, [Lys(î-Ac)]^4 -GnRH-III]
% Inhibition of the colony formation (Ishikawa [5]): 14%
% Inhibition of the colony formation (MCF-7 [6]; 10 µM): 40%
% Inhibition of the colony formation (MCF-7 [6]; 50 µM): 52%
% Inhibition of the colony formation (MDA-MB-231 [7]; 10 µM): 31%
% Inhibition of the colony formation (MDA-MB-231 [7]; 50 µM): 42%
% Inhibition of the colony formation (MDA-MB-231 [7]; 50 µM, listed as Example 32, 50 µM): 35-42%
% Inhibition of the colony formation (PC3 [8]): 0%
inhibition of colony formation (PC3 [8]): did not influence
inhibitory effect compared with the control D-Trp^6-hGnRH (human tumour cell lines [9]): exceeded the inhibitory effect of control
proliferation-inhibiting effect (human tumour cell lines [10]): 27-31%

CC(=O)N[C@H](Cc1c[nH]c2ccccc12)C(=O)N[C@H](Cc1ccc(Cl)cc1)C(=O)N[C@H](Cc1c[nH]c2ccccc12)C(=O)N[C@@H](CO)C(=O)N[C@@H](Cc1ccc(O)cc1)C(=O)N[C@H](CCCCN)C(=O)N[C@@H](CC(C)C)C(=O)N[C@@H](CCCNC(=N)N)C(=O)N1CCC[C@H]1C(=O)N[C@H](C)C(N)=O [MI-1544, Ac-D-Trp^1,3,D-Cpa^2,D-Lys^6,D-Ala^10-hGnRH, reference compound] (Ac-[dW][dPhe(4-Cl)][dW]SY[dK]LRP[dA]-NH2)
% Inhibition of colony formation ([1]; 50 µM): 5%
% Inhibition of colony formation ([2]; 50 µM (active substance)): 45%
% Inhibition of colony formation ([3]; 50 µM): 20%
% Inhibition of colony formation ([4]; 50 µM): 20%
inhibition of proliferation (Ishikawa [11]; [17]): 8%
inhibition of proliferation (PC3 [12]; [17]): 24%
Inhibition % (MXT mouse mammary tumour; [18]): 46%
Tumour volume as control (%) (MXT mouse mammary tumour; [18]): 54%
Inhibition % (MXT mouse mammary tumour; [19]): 46%
Tumour volume as control (%) (MXT mouse mammary tumour; [19]): 54%
Tumour volume (cm^3) (MXT mouse mammary tumour; day 9, 75 µg/day/animal s.c.): 0.44 cm^3
Tumour volume as control (%) (MXT mouse mammary tumour; day 9, 75 µg/day/animal s.c.): 63%
Tumour volume (cm^3) (MXT mouse mammary tumour; day 11, 75 µg/day/animal s.c.): 1.03 cm^3
Tumour volume as control (%) (MXT mouse mammary tumour; day 11, 75 µg/day/animal s.c.): 57%
Tumour volume (cm^3) (MXT mouse mammary tumour; day 13, 75 µg/day/animal s.c.): 1.74 cm^3
Tumour volume as control (%) (MXT mouse mammary tumour; day 13, 75 µg/day/animal s.c.): 54%
Tumour volume (cm^3) (MXT mouse mammary tumour; day 17, 75 µg/day/animal s.c.): 2.63 cm^3
Tumour volume as control (%) (MXT mouse mammary tumour; day 17, 75 µg/day/animal s.c.): 51%
Tumour volume (cm^3) (MXT mouse mammary tumour; day 18, 75 µg/day/animal s.c.): 3.94 cm^3
Tumour volume as control (%) (MXT mouse mammary tumour; day 18, 75 µg/day/animal s.c.): 53%
Tumour volume (cm^3) (MXT mouse mammary tumour; day 20, 75 µg/day/animal s.c.): 5.02 cm^3
Tumour volume as control (%) (MXT mouse mammary tumour; day 20, 75 µg/day/animal s.c.): 54%
Tumour volume (cm^3) (MXT mouse mammary tumour; day 24, 75 µg/day/animal s.c.): 6.08 cm^3
Tumour volume as control (%) (MXT mouse mammary tumour; day 24, 75 µg/day/animal s.c.): 48%
Tumour volume (cm^3) (MXT mouse mammary tumour; day 26, 75 µg/day/animal s.c.): 8.42 cm^3
Tumour volume as control (%) (MXT mouse mammary tumour; day 26, 75 µg/day/animal s.c.): 60%

D-Phe^2,D-Trp^3,{D-Lys[n-poly(N-vinylpyrrolidone-co-maleic acid)-Gly-Phe-Leu-Gly]}^6,-GnRH [P-GFLG-1004]
% Inhibition of colony formation ([1]; 10 µM): 3%
% Inhibition of colony formation ([1]; 50 µM): 46%
% Inhibition of colony formation ([2]; 10 µM (active substance)): 75%
% Inhibition of colony formation ([2]; 50 µM (active substance), listed as 8. P-GFLG-1004, 50 µM): 95%
% Inhibition of colony formation ([3]; 10 µM): 62%
% Inhibition of colony formation ([3]; 50 µM, listed as 8. P-GFLG-1004, 50 µM): 92%
% Inhibition of colony formation ([4]; 30 µM): 100%
% Inhibition of colony formation ([4]; 50 µM): 100%
% Inhibition of the colony formation (PC3 [8]): 31%
% Inhibition of cell division (proliferation) (MCF-7 [13]): 63%
% Inhibition of cell division (proliferation) (MDA-MB-231 [14]): 68%
% Inhibition of cell division (proliferation) (Ishikawa [11]; [20]): 20%
% Inhibition of cell division (proliferation) (PC3 [12]; [20]): 35%

D-Phe^6-GnRH(1-9)-ethylamide [Ovurelin]
inhibition (change in the cell count) (MCF-7 [15]): 5-15%
inhibition of cell proliferation (MDA-MB-231 [16]): 25-30%

[D-Ser(tBu)]^6,desGly^10-hGnRH(1-9)EA [Buserelin]
inhibition (change in the cell count) (MCF-7 [15]): 5-15%
inhibition of cell proliferation (MDA-MB-231 [16]): 25-30%
